Measurements: ChEMBL document CHEMBL4619750, “Benzoxepinones: A new isoform-selective class of tumor associated carbonic anhydrase inhibitors” (Bioorg Med Chem, 2020)

Assays:
Carbonic anhydrase 1 = Carbonic anhydrase 1 (Homo sapiens, UniProt P00915); assay: Inhibition of human carbonic anhydrase 1 assessed as inhibitory constant incubated for 6 hrs by stopped-flow CO2 hydration assay
Carbonic anhydrase 2 = Carbonic anhydrase 2 (Homo sapiens, UniProt P00918); assay: Inhibition of human carbonic anhydrase 2 assessed as inhibitory constant incubated for 6 hrs by stopped-flow CO2 hydration assay
Carbonic anhydrase 9 = Carbonic anhydrase 9 (Homo sapiens, UniProt Q16790); assay: Inhibition of human carbonic anhydrase 9 assessed as inhibitory constant incubated for 6 hrs by stopped-flow CO2 hydration assay

Sequence of Carbonic anhydrase 1 (P00915 whole entry): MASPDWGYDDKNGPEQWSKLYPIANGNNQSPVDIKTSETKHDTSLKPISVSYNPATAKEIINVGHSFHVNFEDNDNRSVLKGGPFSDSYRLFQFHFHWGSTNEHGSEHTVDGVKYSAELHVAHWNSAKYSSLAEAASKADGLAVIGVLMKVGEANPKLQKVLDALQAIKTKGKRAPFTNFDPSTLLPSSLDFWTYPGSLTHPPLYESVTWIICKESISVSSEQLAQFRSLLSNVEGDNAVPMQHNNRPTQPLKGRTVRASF

SMILES | Ki (Carbonic anhydrase 1) | Ki (Carbonic anhydrase 2) | Ki (Carbonic anhydrase 9)
COC(=O)C1=Cc2ccc(C)cc2OC(=O)C1 | > 100 µM | > 100 µM | 0.171 µM
COC(=O)C1=Cc2ccccc2OC(=O)C1 | > 100 µM | > 100 µM | 0.254 µM
COC(=O)C1=Cc2cc(C(=O)OC)ccc2OC(=O)C1 | > 100 µM | > 100 µM | 0.0393 µM
COC(=O)C1=Cc2ccc3ccccc3c2OC(=O)C1 | > 100 µM | > 100 µM | 0.303 µM
COC(=O)C1=Cc2cc(C)ccc2OC(=O)C1 | > 100 µM | > 100 µM | 0.0717 µM
COC(=O)C1=Cc2cc(C(C)(C)C)ccc2OC(=O)C1 | > 100 µM | 85.7 µM | 0.0373 µM
CCN(CC)c1ccc2c(c1)OC(=O)CC(C(=O)OC)=C2 | > 100 µM | > 100 µM | 0.0934 µM
COC(=O)C1=Cc2cccc(OC)c2OC(=O)C1 | > 100 µM | > 100 µM | 0.0463 µM
COC(=O)C1=Cc2ccc(Cl)cc2OC(=O)C1 | > 100 µM | > 100 µM | 0.078 µM
COC(=O)C1=Cc2ccc(OC)cc2OC(=O)C1 | > 100 µM | > 100 µM | 0.0838 µM
COC(=O)C1=Cc2cc(OC)ccc2OC(=O)C1 | > 100 µM | 66.8 µM | 0.0402 µM
COC(=O)C1=Cc2cc(Cl)ccc2OC(=O)C1 | > 100 µM | 76.2 µM | 0.02 µM
